We go through 35 sequences from patent US20200123208A1, “PEPTIDES AND NEMATICIDAL COMPOSITIONS” (priority 2017, published 2020).

Common to all, as to assay type: in vivo
Test [1] concerns Meloidogyne incognita J2s. As to the kind of experiment: Serotonin-induced stylet thrusting assay, M. incognita J2s. To be noted: 100 μM uNLP, 24 h, 5 mM serotonin. The method, then:
(§1) Predicted uNLPs from both M. incognita and G. pallida were synthesised by EZBiolab and dissolved into pH adjusted ddH2O to make a 5 mM stock which was aliquoted and stored at −20° C. J2s of both M. incognita and G. pallida were incubated for 24 hours in 200 μl of each peptide in a 24 well plate (SPL Lifesciences, South Korea) at a defined concentration.
(§2) Stylet thrusting assays where performed by incubating 100 M. incognita or G. pallida J2s for 15 minute in 5 mM or 2 mM serotonin (Sigma Aldrich, USA), respectively. J2s were placed on a glass slide and stylet thrusts were counted for randomly selected J2s, for 1 minute each. Counting took place for a maximum of 15 minutes. Longer incubations yielded inconsistent results. At least 30 J2s were counted for each neuropeptide treatment.

The test system of test [2] is Meloidogyne incognita J2s. The test is described as follows: Tomato invasion assay, M. incognita J2s. Particulars: 100 μM uNLP, 24 h, tomato seedlings, normalised to negative control. The procedure:
as §1
(§3) Tomato seeds were sterilised with 2.5% NaOCl for 15 minutes, washed 5 times in ddH2O and germinated on 0.5% Murashige and Skoog plates at 23° C. […] Invasion assays were performed by mixing 500 pre-treated M. incognita or G. pallida J2s with agar slurry and a single tomato seedling (2 days post germination) in a 6 well plate. Assays were left at 23° C. for 24 hours in the case of M. incognita and at 18° C. for 24 hours in the case of G. pallida under a 16 hour light and 8 hour darkness cycle. Seedlings were stained using acid fuschin [69] and the number of nematodes within the roots counted.

Test [3] deals with Globodera pallida infective stage juveniles (J2s). The test is described as follows: Chemosensory (chemotaxis) assay towards root exudate, G. pallida J2s. To be noted: 100 μM uNLP, 24 h, mean+/-SEM. The procedure:
as §1
(§4) A 60 mm Petri dish was divided into two segments, a positive and a negative side, with a 0.5 cm ‘dead zone’ either side of the centre point. The petri dish was filled with 15 ml of 0.25% w/v agar which was allowed to solidify. 3 ml of 0.25% w/v agar slurry in spring water (pH 7, agitated with a magnetic stirrer for several hours to give a smooth consistency) was added to the petri dish and spread evenly over the surface. Root diffusate (attractant) and water only (control) 0.25% agar plugs were embedded in the agar slurry, either side of the assay arena. Root diffusate was collected from 10 tomato plants, aged 3-6 weeks in 1 litre pots, by pouring 500 ml of ddH2O through the soil three times. Diffusate from each plant was combined, filter sterilised and stored at 4° C. for a maximum of 1 month. Root diffusate agar plugs were made by melting 1.25% agar in ddH2O, cooling to 50° C. before mixing with 4 parts of root diffusate. The agar was then allowed to solidify at room temperature. 100 uNLP pre-treated M. incognita or G. pallida J2s were added by pipette to the centre of the plate. J2s which moved out of the ‘dead zone’ after 3 hours were counted and their location (+/−) scored. The distribution of J2s were used to create a chemotaxis index for each plate, which formed one replicate, a total of 10 replicates where completed for each uNLP treatment.

In test [4] the test system is Meloidogyne incognita infective stage juveniles (J2s). The test is described as follows: Chemosensory (chemotaxis) assay towards root exudate, M. incognita J2s. Particulars: M. incognita J2s, 100 μM uNLP, 24 h; mean+/-SEM. The procedure:
as §1, §4

Test [5] concerns Globodera pallida J2s. The test is described as follows: Tomato invasion assay, G. pallida J2s. To be noted: G. pallida J2s, 100 μM uNLP, 24 h; tomato seedlings. The procedure: as §1, §3
The test system of test [6] is Globodera pallida J2s. The test is described as follows: Serotonin-induced stylet thrusting assay, G. pallida J2s. Particulars: 100 μM uNLP, 24 h, 2 mM serotonin. The procedure:
as §1, §2

As for “AAENFDENNDIN [Mi-NLP-18d, predicted unamidated NLP of Meloidogyne incognita]”, the “rate of serotonergic-induced stylet thrusting compared with controls” value (“rate … compared with controls” below) in test [1] turned out to be 147.7%+/−16.05. In addition, in test [2], the “host invasion compared to controls” value stood at 34.21%+/−12.

Take “AFDLFTGPGFTGMD [Gp-NLP-15h, predicted unamidated NLP of Globodera pallida]”: in test [3], the “chemotaxis index (Cl) towards root exudate” value (shortened to “chemotaxis index”) is −0.06784+/−0.1415.

With “AFDRLDNSFMLL [Mi-NLP-8d, predicted unamidated NLP of Meloidogyne incognita]”, the “host invasion compared to controls” value in test [2] amounted to 29.31%+/−12.57.

Take “AFDRLDVSPFDFDAMT [Mi-NLP-8a, predicted unamidated NLP of Meloidogyne incognita]”: the “chemotaxis index” value in test [4] is listed as 0.018+/−0.3438. For the same sequence, the “rate … compared with controls” value in test [1] is listed as 126.1%+/−9.278.

On to “AFDSFAGNGFTGFD [Mi-NLP-15f, predicted unamidated NLP of Meloidogyne incognita]”, for which, in test [4], the “chemotaxis index” value is on record as −0.05+/−0.3547. The “rate … compared with controls” value in test [1] is on record as 75.18%+/−9.199.

On to “AFDSFGTPGFTGFD [Mi-NLP-15a, predicted unamidated NLP of Meloidogyne incognita]”, for which, in test [4], the “chemotaxis index” value was −0.01067+/−0.06497.

On to “AFDSFTGPGFTGMD [Gp-NLP-15g, predicted unamidated NLP of Globodera pallida]”, for which the “chemotaxis index” value in test [3] is reported as −0.2208 +/−0.1568.

For the sequence “AGARAFQRPDFDDASYEL [Mi-NLP-9a, predicted unamidated NLP of Meloidogyne incognita]”, the “host invasion compared to controls” value in test [2] amounted to 45.59%+/−22.97.

With “AGGRLFRMVDLPDGDDFVPEG [Gp-NLP-21e, predicted unamidated NLP of Globodera pallida]”, in test [3], the “chemotaxis index” value is −0.3804+/−0.2762.

Turning to “AGGRYFMRHFDDSPFAGWMA [Gp-NLP-21g, predicted unamidated NLP of Globodera pallida]”, in test [3], the “chemotaxis index” value is −0.01357+/−0.1854. The “host invasion relative to controls” value in the test on Globodera pallida J2s [5] was determined as 214.8%+/−30.31.

Consider “ALDILDGDDFTGFS [Gp-NLP-14e, predicted unamidated NLP of Globodera pallida]”, for which the “chemotaxis index” value in test [3] is reported as −0.0641+/−0.2329.

Consider “ALDILESDDFGGF [Gp-NLP-14a, predicted unamidated NLP of Globodera pallida]”, for which the “chemotaxis index” value in test [3] is recorded as −0.3765+/−0.1039.

Take “ALDLMEGDGFGGGFD [Mi-NLP-14b, predicted unamidated NLP of Meloidogyne incognita]”: the “chemotaxis index” value in test [4] was −0.1155+/−0.1472.

On to “ALDMLEGDDFIGMQ [Mi-NLP-14a, predicted unamidated NLP of Meloidogyne incognita]”, for which the “rate … compared with controls” value in test [1] is reported as 61.6%+/−7.86. In test [2], the “host invasion compared to controls” value was 44.61%+/−12.25.

For the sequence “ALDMMEGDDFIGL [Mi-NLP-14c, predicted unamidated NLP of Meloidogyne incognita]”, the “rate … compared with controls” value in test [1] stood at 134.7%+/−19.51. Besides, in test [2], the “host invasion compared to controls” value amounted to 20.96%+/−11.12.

“FAPRQFAFA [Mi-NLP-18a, predicted unamidated NLP of Meloidogyne incognita]”: the “chemotaxis index” value in test [4] is −0.1353+/−0.1129. The “host invasion compared to controls” value in test [2] is reported as 25.88%+/−8.695.

As to “FNDDELSSLPFNFEYFPSLDTH [Mi-NLP-8b, predicted unamidated NLP of Meloidogyne incognita]”, the “host invasion compared to controls” value in test [2] was determined as 61.38%+/−11.56.

In the case of “GGARAFAKLEE [Mi-NLP-9c, predicted unamidated NLP of Meloidogyne incognita]”, the “rate … compared with controls” value in test [1] is listed as 143.2%+/−9.878.

For “GGARAFFGDADGPFNSASYWAP [Gp-NLP-21h, predicted unamidated NLP of Globodera pallida]”, in test [3], the “chemotaxis index” value was −0.01564+/−0.08072. In addition, the “serotonergic-induced stylet thrusting relative to control groups” value in the test with Globodera pallida J2s [6] is recorded as 116.8%+/−4.876.

With “GGARAFNFFAPDE [Gp-NLP-21b, predicted unamidated NLP of Globodera pallida]”, the “chemotaxis index” value in test [3] is on record as −0.117 +/−0.1936. Also, the “host invasion relative to controls” value with Globodera pallida J2s [5] turned out to be 6.897%+/−3.855.

In the case of “GGARAFNFFAPPDE [Gp-NLP-21a, predicted unamidated NLP of Globodera pallida]”, the “host invasion relative to controls” value in the test with Globodera pallida J2s [5] is given as 178.9%+/−48.52.

Take “GGARAFNGAEETLLNVANLA [Gp-NLP-21i, predicted unamidated NLP of Globodera pallida]”: the “chemotaxis index” value in test [3] is −0.1733 +/−0.02667. Moreover, the “serotonergic-induced stylet thrusting relative to control groups” value in the test on Globodera pallida J2s [6] worked out at 117.7%+/−4.497.

For the sequence “GGARPFYGFFGGGEGTW [Mi-NLP-9e, predicted unamidated NLP of Meloidogyne incognita]”, the “host invasion compared to controls” value in test [2] turned out to be 48.68%+/−10.87.

Regarding “GGARPFYGGGYMDGTW [Gp-NLP-21f, predicted unamidated NLP of Globodera pallida]”, the “chemotaxis index” value in test [3] is 0.1456+/−0.1232.

For the sequence “GGARTFLVGE [Mi-NLP-9b, predicted unamidated NLP of Meloidogyne incognita]”, the “chemotaxis index” value in test [4] is −0.07417+/−0.154.

For “GGTRAFNFFVSDALPSSYE [Gp-NLP-21c, predicted unamidated NLP of Globodera pallida]”, in the test with Globodera pallida J2s [5], the “host invasion relative to controls” value worked out at 14.07%+/−4.655.

Consider “GMRNFAFA [Mi-NLP-18b, predicted unamidated NLP of Meloidogyne incognita]”, for which the “rate … compared with controls” value in test [1] is recorded as 146.6%+/−7.609. Besides, the “host invasion compared to controls” value in test [2] amounted to 47.81%+/−6.008.

Take “SAFDSFVGRGFTGMD [Mi-NLP-15e, predicted unamidated NLP of Meloidogyne incognita]”: the “chemotaxis index” value in test [4] is −0.01767+/−0.09428. The “host invasion compared to controls” value in test [2] worked out at 38.71%+/−5.963.

Consider “SFDSFTGSGFTGLD [Gp-NLP-15c, predicted unamidated NLP of Globodera pallida]”, for which the “chemotaxis index” value in test [3] is −0.227+/−0.0776. In addition, the “serotonergic-induced stylet thrusting relative to control groups” value in the test on Globodera pallida J2s [6] amounted to 56.07%+/−9.441.

Take “SFDSFVGKGFTGMD [Mi-NLP-15c, predicted unamidated NLP of Meloidogyne incognita]”: the “chemotaxis index” value in test [4] is on record as −0.359+/−0.277.

Regarding “SFDSLTGPGFTGLDT [Gp-NLP-15a, predicted unamidated NLP of Globodera pallida]”, in test [3], the “chemotaxis index” value is recorded as −0.1451 +/−0.221.

In the case of “SFGDYPFGSRTFAFA [Mi-NLP-18c, predicted unamidated NLP of Meloidogyne incognita]”, the “rate … compared with controls” value in test [1] worked out at 175.5%+/−20.72.

On to “SGIQTFRDDYDEKQAGEL [Gp-NLP-21d, predicted unamidated NLP of Globodera pallida]”, for which the “host invasion relative to controls” value in the test on Globodera pallida J2s [5] amounted to 2.01%+/−1.545.

In the case of “SSLASGRIGFRPA [Mi-NLP-2, predicted unamidated NLP of Meloidogyne incognita]”, in test [1], the “rate … compared with controls” value is 164.4%+/−20.3.

Consider “SSQFGGENSFARFAFA [Mi-NLP-18e, predicted unamidated NLP of Meloidogyne incognita]”, for which the “host invasion compared to controls” value in test [2] was found to be 46.49%+/−7.391.
